Converted amounts (≈) assume the structure as drawn.
What was measured:
[1] = In vitro artificial cellulose membrane test (Franz diffusion device); format: in vitro ADME; settings: 37° C., 10 hours
Procedure: A Franz diffusion device (SUNMEI instruments Co., Ltd, Taiwan) shown in FIG. 5 was used to estimate the ability of pure n-butylidenephthalide (BP) liquid and the pharmaceutical compositions to permeate trough the artificial cellulose membrane, to simulate their permeation through a nasal mucosa. The superficial area of diffusion of the device is about 4.5 cm^2, and the capacity volume of receptor chamber of the device is about 23 mL. […]

[2] = Viscosity analysis (AR2000 rheometer); format: physicochemical
Procedure: The viscosity analysis was performed by measuring the relationship of viscosity of a sample to shear rate and rheological property of the sample using AR2000 rheometer (stress control) (from TA Instruments; measuring mold: cone and plate; amount of sample: 1 mL).

[3] = Room-temperature stability test: appearance of the composition; format: physicochemical; settings: PBS
Procedure: The stability study of the pharmaceutical composition was performed by: (1) observing the appearance of the pharmaceutical composition after storage at room temperature for 3 or 7 days, and classifying the results into “V” (if the pharmaceutical composition remained homogeneous) and “X” (if the pharmaceutical composition separated into two layers or had precipitation) to evaluate the appearance stability; and (2) analyzing the purity of n-butylidenephthalide by measuring the impurities in the pharmaceutical composition through relative retention time (RRT) using a LCMS instrument with the following conditions.

[4] = Solubility of n-butylidenephthalide in solvents; format: physicochemical; settings: organic solvent or mixture
GBM 8401 cells = test: Cytotoxicity test (IC50 value), MTT cell survival assay; format: cell-based; settings: Homo sapiens, 24 hours
Procedure: GBM 8401 cells (i.e., a human brain glioblastoma multiforme cell line) were cultured in a 96-well culture plate with a cell number of 6×10^3 per well, and treated with pure n-butylidenephthalide (BP) or one of the pharmaceutical compositions for 24 hours. The treatment concentrations of active ingredient, n-butylidenephthalide (BP), were 0 μg/mL (i.e., control group), 12.5 μg/mL, 25 μg/mL, 50 μg/mL, 100 μg/mL and 200 μg/mL, respectively. Then, the half maximal inhibitory concentration (IC50) of each pharmaceutical composition to GBM 8401 cells was analyzed by MTT (3-(4,5-cimethylthiazol-2-yl)-2,5-diphenyl tetrazolium bromide) cell survival assay, to evaluate the cytotoxic effect.

[5] = Droplet size, electrical conductivity and zeta potential analyses; format: physicochemical; settings: sample with n-butylidenephthalide 200 μg/mL
Procedure: The pharmaceutical composition was formulated to provide a sample in which the concentration of n-butylidenephthalide is 200 μg/mL. The droplet size, electrical conductivity and zeta potential of the sample were analyzed using a high concentration nano-droplet size and zeta potential meter (Malvern Nano-ZS ZEN-3600).

[6] = test system: 9 L (rat brain gliosarcoma cell line) tumor tissue; test: Intranasal treatment of rats with intracranially transplanted 9 L tumor; format: in vivo
Procedure: 9 L (i.e., a rat brain gliosarcoma cell line) tumor tissue was intracranially transplanted into rats. The test of drug treatment was conducted after the intracranial tumor formed. The test method includes: (i) using 400 mg/kg of chloral hydrate (Sigma-Aldrich Company Ltd.) to anesthetize the rats, shaving the hair on the head of rats after the rats were in a coma, and fixing the rats in a stereotaxic instrument (Lab Standard™ Stereotaxic Instrument); (ii) scissoring the scalp by shears to expose the cranium, setting the bregma as a center, and drilling a 5 mm hole at the positioned drilling site 3 mm right to and 5 mm below the bregma on the cranium by a drill; (iii) clamping the prepared 9 L tumor tissue (1×1×1 mm^3) by a forceps and transplanting it into 3 mm depths within the brain, and then, resting for 1 minute to coagulate the blood, removing the forceps, and coating the bone wax on the hole, lastly, suturing the scalp of rats and administering the rats with antibiotics; (iv) 7 days after the transplantation of tumor tissue, randomly grouping the rats as the following Table 11, and then, sucking a drug (n-butylidenephthalide (BP) or pharmaceutical composition 5) by a pipette and dropping the drug into the nasal cavity of the rats to conduct an intranasal administration, and repeating the administration for 30 days and recording the body weight of rats and the number of dead rats during this medical treatment; and (v) removing the tumor, and then, measuring the length-breadth of tumor by an electronic vernier caliper and calculating the total volume of tumor by using the following Formula 3, measuring the weight of tumor at the same time, and drawing the obtained values into a bar diagram and a curve diagram, to determine the therapeutic effect.

RPMI 2650 cells = test: In vitro cell line permeation test; format: in vitro ADME, human; settings: RPMI 2650 cellular monolayer, 37° C., 6 hours
Procedure: (§1) [formula] V: Capacity of receptor chamber (mL) C0: Initial supplied concentration of drug (μg/mL) Peff: Permeability coefficient (cm/s) J: Flux (μg/cm^2·s) A: Superficial area of diffusion (cm^2)
(§2) [formula] Change of the concentration along with time under a stable status (μg/mLs)
(§3) RPMI 2650 cells (i.e., a human nasal septum squamous cell line) were seeded in a collagen-coated cell insert with 0.4 μm pore size and cultured for 2 days to lead the cells to form a cellular monolayer on the insert. The cell insert was then transferred into a 12-well plate with 1.5 mL of Hepes buffer inside. 0.5 mL of Hepes buffer containing pure n-butylidenephthalide or the pharmaceutical composition was added into the 12-well plate. Next, the 12-well plate was placed into an incubator (37° C., 5% CO2) and incubated. The buffer in each well of the 12-well plate was collected every 1 hour (6 hours in total), and the absorption spectrum of the sampled buffer was detected by a spectrophotometer at […] wavelength to calculate the concentration of n-butylidenephthalide or the pharmaceutical composition. The permeability coefficient (Peff) and flux (J) were calculated by using the above Formula 1 and Formula 2.

[7] = In vitro cell line permeation test; format: in vitro ADME, human; settings: human, RPMI 2650 cellular monolayer, 37° C., read-out: Peff ± SD
Procedure: as §1, §2, §3

SMILES: CCCC=C1OC(=O)c2ccccc21 [Pure BP, n-butylidenephthalide]
- Flux ± SD [1]: 2.29 ± 0.23 10^−3 μg/cm^2 · s
- Peff ± SD [1]: 0.76 ± 0.08 10^−6 cm/s
- Average viscosity ± SD ([2]; cone and plate, 1 mL sample): 1.57 ± 0.01 ×10^−2 Pa · s
- Rheological property (Newtonian or non-Newtonian fluid) ([2]; viscosity versus shear rate): Newtonian fluids
- Amount stable in the medium system ([3]; polyethoxylated castor oil, and ethanol with polypropylene glycol): up to 208 mg/mL
- Amount stable in the medium system ([3]; polyethoxylated castor oil, and polyethylene glycol with dimethyl sulfoxide or with ethanol (Examples 1, 5 and 6)): up to 1000 mg/mL
- solubility ([4]; in ethanol): > 222 mg/mL
- solubility ([4]; in polyethylene glycol 400, polyethylene glycol 300 or polypropylene glycol): 70 to 120 mg/mL (≈ 372 to 638 mM)
- IC50 (GBM 8401 cells): 70 µg/mL (≈ 0.372 mM)
- Electrical conductivity [5]: 0.02 mS/cm
- Zeta potential [5]: 0.38 mV
- Growth of tumor ([6]; 160 mg/kg or 320 mg/kg, compared to control group): effective in inhibiting the growth of tumor
- Survival rate ([6]; 160 mg/kg, 30 days): significantly increased and similar survival rates
- Volume and weight of tumor ([6]; 160 mg/kg, 30 days): significantly reduced and similar volume and weight of tumor
- Flux ± SD (RPMI 2650 cells): 0.32 ± 0.02 10^−3 μg/cm^2 · s
- Papp at 6 h [7]: 1.59 ± 0.09 ×10⁻⁶ cm/s

— patent publication US9504751B2, “Stable pharmaceutical composition” (EVERFRONT BIOTECH INC., priority 2014, dated 2016)
